pIC50: −log10 of the molar value.
The compounds below were run on Ramos B-Cell Line Stimulated with IL-4 (JAK-1 and JAK-3 / Stat-6, CD23) (assay: Assay for Ramos B-Cell Line Stimulated with IL-4 (CD23 upregulation, FACS)). Settings: Homo sapiens, Ramos, human Ramos B cells, compound 1 hour, IL-4 50 units/mL for 20-24 hours, anti-CD23-PE FACS; read-out: Example 2 (IC50).
Format: cell-based
Method in brief: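 Human Ramos B cells (5×10^4 per point, RPMI with 5% serum) pre-incubated 1 hour at 37° C with compound or DMSO, then stimulated with IL-4 at 50 units/mL final for 20-24 hours. CD23 upregulation measured by flow cytometry.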

Compound	pIC50
Cc1cc(Nc2nc(Nc3ccc(C(N)=O)cc3)ncc2F)ccc1OCC#N [Compound I-87, N2-(4-Aminocarbonylphenyl)-N4-(4-cyanomethoxy-3-methylphenyl)-5-fluoro-2,4-pyrimidinediamine]	7.35
C#CCOc1ccc(Nc2nc(Nc3ccc(C(N)=S)cc3)ncc2F)cc1 [Compound I-7, N2-(4-Aminocarbonothioylphenyl)-5-fluoro-N4-[4-(2-propynyloxy)phenyl]-2,4-pyrimidinediamine]	6.65
CCc1cc(Nc2ncc(F)c(Nc3ccc(OCC#N)cc3)n2)cc(C#N)c1Cl [Compound I-104, N2-(4-Chloro-3-cyano-5-ethylphenyl)-N4-(4-cyanomethoxyphenyl)-5-fluoro-2,4-pyrimidinediamine]	5.94
N#CCOc1ccc(Nc2nc(Nc3ccc(C(N)=O)cc3)ncc2F)cc1 [Compound I-27, N2-(4-Aminocarbonylphenyl)-N4-(4-cyanomethoxyphenyl)-5-fluoro-2,4-pyrimidinediamine]	8.28
COC(=O)c1ccc(Nc2nc(Nc3cccc(C(N)=O)c3)ncc2F)s1 [Compound I-123, N2-(3-Aminocarbonylphenyl)-5-fluoro-N4-(5-methoxycarbonylthiophen-2-yl)-2,4-pyrimidinediamine]	5.98
CN1CCN(c2ccc(Nc3ncc(F)c(Nc4cccc(OCC(N)=O)c4)n3)cc2C(N)=O)CC1 [Compound I-50, N4-(3-Aminocarbonylmethoxyphenyl)-N2-[3-aminocarbonyl-4-(4-methylpiperazin-1-yl)phenyl]-5-fluoro-2,4-pyrimidinediamine]	6.74
CNC(=O)c1cc(Nc2ncc(F)c(Nc3cccc(OCC(N)=O)c3)n2)ccc1N1CCN(C)CC1 [Compound I-51, N4-(3-Aminocarbonylmethoxyphenyl)-5-fluoro-N2-[3-methylaminocarbonyl-4-(4-methylpiperazin-1-yl)phenyl]-2,4-pyrimidinediamine]	6.45
N#Cc1ccc(Nc2ncc(F)c(Nc3cccc(OCC(N)=O)c3)n2)cc1 [Compound I-34, N4-(3-Aminocarbonylmethoxyphenyl)-N2-(4-cyanophenyl)-5-fluoro-2,4-pyrimidinediamine]	5.90
CNC(=O)c1cc(Nc2ncc(F)c(Nc3ccc(OCc4noc(C)n4)cc3)n2)ccc1N1CCN(C)CC1 [Compound I-63, 5-Fluoro-N2-[3-methylaminocarbonyl-4-(4-methylpiperazin-1-yl)phenyl]-N4-[4-((5-methyl-1,2,4-oxadiazol-3-yl)methoxy)phenyl]-2,4-pyrimidinediamine]	6.58
N#CCOc1ccc(Nc2nc(Nc3ccc(C(N)=O)cc3)ncc2F)cc1F [Compound I-101, N2-(4-Aminocarbonylphenyl)-N4-(4-cyanomethoxy-3-fluorophenyl)-5-fluoro-2,4-pyrimidinediamine]	7.47
NC(=O)COc1ccc(Nc2nc(Nc3ccc(C(N)=O)cc3)ncc2F)cc1 [Compound I-25, N4-(4-Aminocarbonylmethoxyphenyl)-N2-(4-aminocarbonylphenyl)-5-fluoro-2,4-pyrimidinediamine]	6.38
CN1CCN(C(=O)c2cccc(Nc3ncc(F)c(Nc4ccc(OCC(N)=O)cc4)n3)c2)CC1 [Compound I-37, N4-(4-Aminocarbonylmethoxyphenyl)-5-fluoro-N2-[3-((4-methylpiperazin-1-yl)carbonyl)phenyl]-2,4-pyrimidinediamine]	5.65
N#CCc1ccc(Nc2ncc(F)c(Nc3ccc(F)c(Cl)c3)n2)cc1 [Compound I-117, N4-(3-Chloro-4-fluorophenyl)-N2-(4-cyanomethylphenyl)-5-fluoro-2,4-pyrimidinediamine]	5.17
N#CCOc1ccc(Nc2nc(Nc3ccc(CC#N)cc3)ncc2F)cc1F [Compound I-103, N4-(4-Cyanomethoxy-3-fluorophenyl)-N2-(4-cyanomethylphenyl)-5-fluoro-2,4-pyrimidinediamine]	7.08
N#Cc1cccc(Nc2ncc(F)c(Nc3ccc(OCC(N)=O)cc3)n2)c1 [Compound I-22, N4-(4-Aminocarbonylmethoxyphenyl)-N2-(3-cyanophenyl)-5-fluoro-2,4-pyrimidinediamine]	6.05
N#CCOc1ccc(Nc2nc(Nc3cccc(C#N)c3)ncc2F)cc1 [Compound I-30, N4-(4-Cyanomethoxyphenyl)-N2-(3-cyanophenyl)-5-fluoro-2,4-pyrimidinediamine]	7.15
CN1CCN(c2ccc(Nc3ncc(F)c(Nc4ccc(OCC(N)=O)cc4)n3)cc2C(N)=O)CC1 [Compound I-38, N2-[3-Aminocarbonyl-4-(4-methylpiperazin-1-yl)phenyl]-N4-(4-aminocarbonylmethoxyphenyl)-5-fluoro-2,4-pyrimidinediamine]	6.27
N#CCOc1ccc(Nc2ncc(F)c(Nc3ccc(OCC#N)c(Cl)c3)n2)cc1Cl [Compound I-107, N2,N4-Bis(3-chloro-4-cyanomethoxyphenyl)-5-fluoro-2,4-pyrimidinediamine]	6.46
N#CCOc1cccc(Nc2nc(Nc3cccc(C(N)=O)c3)ncc2F)c1 [Compound I-45, N2-(3-Aminocarbonylphenyl)-N4-(3-cyanomethoxyphenyl)-5-fluoro-2,4-pyrimidinediamine]	6.37

Results, then the compound that gave them:

pIC50	Compound
5.32	CCc1cc(Nc2ncc(F)c(Nc3ccc4c(c3)NC(=O)CO4)n2)cc(C#N)c1Cl [II-27, N2-(4-Chloro-3-cyano-5-ethylphenyl)-5-fluoro-N4-(3-oxo-2H,4H-benzo[1,4]oxazin-6-yl)-2,4-pyrimidinediamine]
5.85	CCc1cc(Nc2ncc(F)c(Nc3ccc4c(c3)NC(=O)C(C)(C)O4)n2)cc(C#N)c1Cl [II-25, N2-(4-Chloro-3-cyano-5-ethylphenyl)-N4-(2,2-dimethyl-3-oxo-4H-benzo[1,4]oxazin-6-yl)-5-fluoro-2,4-pyrimidinediamine]
6.82	COc1ccc(Nc2nc(Nc3ccc4oc(C(=O)NCCN5CCOCC5)cc4c3)ncc2F)cc1Cl [III-1, N4-(3-Chloro-4-methoxyphenyl)-5-fluoro-N2-[2-(2-(N-morpholinyl)ethylaminocarbonyl)benzofuran-5-yl]-2,4-pyrimidinediamine]

Same assay, conditions: human Ramos B cells, compound 1 hour, IL-4 50 units/mL for 20-24 hours, anti-CD23-PE FACS; read-out: Example 2 (IC50)

Compound	pIC50
Cc1noc(COc2cccc(Nc3nc(Nc4cccc(C(N)=O)c4)ncc3F)c2)n1 [Compound I-128, N2-(3-Aminocarbonylphenyl)-5-fluoro-N4-[3-((3-methyl-1,2,4-oxadiazol-5-yl)methyleneoxy)phenyl]-2,4-pyrimidinediamine]	6.69
CC(C#N)Oc1ccc(Nc2nc(Nc3cccc(C#N)c3)ncc2F)cc1 (centres unmarked) [Compound I-80, N4-[4-(I-Cyanoethoxy)phenyl]-N2-(3-cyanophenyl)-5-fluoro-2,4-pyrimidinediamine]	6.72
N4-(4-(1-Cyanoethoxy)-3,5-dimethyl phenyl]-5-fluoro-N2-[4-((4-methylpiperazin-1-yl)carbonyl)phenyl]-2,4-pyrimidinediamine [Compound I-98]	6.56
Cc1noc(COc2cccc(Nc3nc(Nc4ccc(CC#N)cc4)ncc3F)c2)n1 [Compound I-129, N2-(4-Cyanomethylphenyl)-5-fluoro-N4-[3-((3-methyl-1,2,4-oxadiazol-5-yl)methyleneoxy)phenyl]-2,4-pyrimidinediamine]	5.89
CCN(CC)CCNC(=O)c1ccc(Nc2ncc(F)c(Nc3cccc(OCc4nc(C)no4)c3)n2)cc1 [Compound I-125, N2-[4-(2-(N,N-Diethylamino)ethylaminocarbonyl)phenyl]-5-fluoro-N4-[3-(3-methyl-1,2,4-oxadiazol-5-yl)methyleneoxyphenyl]-2,4-pyrimidinediamine]	6.99
CN1CCN(C(=O)c2ccc(Nc3ncc(F)c(Nc4cccc(OCC(N)=O)c4)n3)cc2)CC1 [Compound I-49, N4-(3-Aminocarbonylmethoxyphenyl)-5-fluoro-N2-[4-((4-methylpiperazin-1-yl)carbonyl)phenyl]-2,4-pyrimidinediamine]	5.64
Cc1cnc(Nc2cccc(C(N)=O)c2)nc1Nc1ccc(OCc2ccccn2)cc1 [Compound I-134, N2-(3-Aminocarbonylphenyl)-5-methyl-N4-[4-(2-pyridinylmethyleneoxy)phenyl]-2,4-pyrimidinediamine]	7.07

More lines, now with the values ahead:

pIC50	Compound
6.72	Cc1cnc(Nc2cccc(C(N)=O)c2)nc1Nc1ccc2c(c1)NC(=O)CS2 [II-44, N2-(3-Aminocarbonylphenyl)-N4-(3,4-dihydro-2H-3-oxo-4H-benz[1,4]thiazin-6-yl)-5-methyl-2,4-pyrimidinediamine]
6.83	5-Fluoro-N2-[2-(2-(N-morpholinyl)ethylaminocarbonyl)benzofuran-5-yl]-N4-[4-(2-propynyloxy)phenyl]-2,4-pyrimidinediamine [III-3]
7.55	CNC(=O)COc1cccc(Nc2ncc(C)c(Nc3ccc4c(c3)NC(=O)CO4)n2)c1 [II-5, 5-Methyl-N2-[3-(N-methylaminocarbonylmethyleneoxy)phenyl]-N4-(3-oxo-2H,4H-benzo[1,4]oxazin-6-yl)-2,4-pyrimidinediamine]
5.42	CNC(=O)COc1cccc(Nc2ncc(C)c(Nc3cnc4c(c3)OC(F)(F)C(=O)N4)n2)c1 [II-36, N4-(2,2-Difluoro-3-oxo-4H-5-pyrido[1,4]oxazin-7-yl)-5-methyl-N2-[3-(N-methylaminocarbonylmethyleneoxy)phenyl]-2,4-pyrimidinediamine]
6.64	Cc1cnc(Nc2cccc(C(N)=O)c2)nc1Nc1ccc2c(n1)N(C)C(=O)C(C)(C)O2 [II-43, N2-(3-Aminocarbonylphenyl)-5-methyl-N4-(2,2,4-trimethyl-3-oxo-5-pyrido[1,4]oxazin-6-yl)-2,4-pyrimidinediamine]
4.79	N2-(4-Chloro-3-cyano-5-ethyl phenyl)-N4-(2,2-dimethyl-3-oxo-4H-5-pyrido[1,4]oxazin-6-yl)-5-fluoro-2,4-pyrimidinediamine [II-26]

— US7834024B2, “Compositions and methods for inhibition of the JAK pathway” (Rigel Pharmaceuticals, Inc., priority 2007, dated 2010)
